Measured values as given in ChEMBL document CHEMBL5230104, “Systemic review on B-RafV600E mutation as potential therapeutic target for the treatment of cancer” (Eur J Med Chem, 2020).
Each block holds one compound with its values, some of them ahead of it.

Assays:
SW480 = test: Antiproliferative activity against human SW480 cells; assay type: functional, cell-based
[1] = target: T1, Serine/threonine-protein kinase B-raf (Homo sapiens, UniProt P15056, V600E); test: Inhibition of B-Raf V600E mutant (unknown origin)
Target sequence in this assay (P15056 whole entry V600E): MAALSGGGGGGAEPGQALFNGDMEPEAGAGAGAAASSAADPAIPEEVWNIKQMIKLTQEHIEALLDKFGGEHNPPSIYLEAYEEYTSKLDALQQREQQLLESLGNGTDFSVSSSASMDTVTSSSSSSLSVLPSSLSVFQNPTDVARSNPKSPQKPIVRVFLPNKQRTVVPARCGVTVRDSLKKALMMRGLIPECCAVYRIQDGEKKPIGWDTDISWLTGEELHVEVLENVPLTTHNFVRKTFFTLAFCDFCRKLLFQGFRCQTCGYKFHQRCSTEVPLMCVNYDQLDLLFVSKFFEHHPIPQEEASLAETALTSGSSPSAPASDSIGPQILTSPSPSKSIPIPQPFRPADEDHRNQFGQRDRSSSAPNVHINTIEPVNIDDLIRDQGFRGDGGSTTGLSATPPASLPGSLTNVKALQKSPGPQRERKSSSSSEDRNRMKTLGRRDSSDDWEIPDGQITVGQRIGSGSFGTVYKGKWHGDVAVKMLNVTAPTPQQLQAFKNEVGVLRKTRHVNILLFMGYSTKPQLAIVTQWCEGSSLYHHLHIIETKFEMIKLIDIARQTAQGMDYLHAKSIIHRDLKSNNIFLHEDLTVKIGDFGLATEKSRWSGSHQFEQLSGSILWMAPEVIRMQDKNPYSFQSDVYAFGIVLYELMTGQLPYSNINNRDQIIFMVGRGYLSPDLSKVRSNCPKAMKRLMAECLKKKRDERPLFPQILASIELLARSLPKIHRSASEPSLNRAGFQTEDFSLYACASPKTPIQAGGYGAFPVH

MDA-MB-453 = test: Antiproliferative activity against human MDA-MB-453 cells; assay type: functional, cell-based
HepG2 [2] = test: Antiproliferative activity against human HepG2 cells; assay type: functional, cell-based
[3] = target: T2, Serine/threonine-protein kinase B-raf (Homo sapiens, UniProt P15056); test: Inhibition of human wild type B-Raf (433 to 726 residues) expressed in Escherichia coli BL21 cells by ELISA based assay
T2 sequence (P15056 whole entry, the tested form may be a part): as the sequence (P15056 whole entry V600E) above, with E600V counted along it

[4] = target: T1, Serine/threonine-protein kinase B-raf; test: Inhibition of human B-Raf V600E mutant (433 to 726 residues) expressed in Escherichia coli BL21 cells by ELISA based assay
Target sequence in this assay (P15056 2-766 V600E limits assumed): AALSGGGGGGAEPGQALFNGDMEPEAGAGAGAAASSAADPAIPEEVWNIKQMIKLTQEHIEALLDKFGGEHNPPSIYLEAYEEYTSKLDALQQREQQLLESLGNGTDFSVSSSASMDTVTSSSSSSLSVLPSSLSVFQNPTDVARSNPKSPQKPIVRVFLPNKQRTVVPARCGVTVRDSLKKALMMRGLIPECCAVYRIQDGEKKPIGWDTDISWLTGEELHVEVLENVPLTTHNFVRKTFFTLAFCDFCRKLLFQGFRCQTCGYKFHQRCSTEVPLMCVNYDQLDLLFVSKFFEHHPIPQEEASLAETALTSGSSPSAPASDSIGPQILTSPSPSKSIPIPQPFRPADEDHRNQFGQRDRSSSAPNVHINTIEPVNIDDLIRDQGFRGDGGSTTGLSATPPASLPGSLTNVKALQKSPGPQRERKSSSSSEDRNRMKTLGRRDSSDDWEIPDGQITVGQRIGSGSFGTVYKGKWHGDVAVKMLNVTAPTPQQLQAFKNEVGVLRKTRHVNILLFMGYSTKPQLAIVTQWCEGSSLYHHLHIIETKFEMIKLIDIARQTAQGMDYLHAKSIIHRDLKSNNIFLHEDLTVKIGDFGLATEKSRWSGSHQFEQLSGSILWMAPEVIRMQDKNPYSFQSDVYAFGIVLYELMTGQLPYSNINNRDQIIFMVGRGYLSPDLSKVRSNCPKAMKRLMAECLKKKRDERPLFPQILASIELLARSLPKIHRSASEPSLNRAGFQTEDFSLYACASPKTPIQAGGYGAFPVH

[5] = target: T2, Serine/threonine-protein kinase B-raf; test: Inhibition of wild type B-Raf (unknown origin)
COLO 205 [6] = test: Antiproliferative activity against human COLO 205 cells assessed as inhibition of cell growth; assay type: functional, cell-based
HepG2 [7] = test: Antiproliferative activity against human HepG2 cells assessed as inhibition of cell growth; assay type: functional, cell-based
SK-MEL-2 [8] = test: Antiproliferative activity against human SK-MEL-2 cells assessed as inhibition of cell growth; assay type: functional, cell-based
A-375 [9] = test: Antiproliferative activity against human A-375 cells assessed as inhibition of cell growth; assay type: functional, cell-based
A-375 [10] = test: Antiproliferative activity against human A-375 cells assessed as inhibition of cell viability; assay type: functional, cell-based
HT-29 [11] = test: Antiproliferative activity against human HT-29 cells incubated for 48 hrs by MTT assay; assay type: functional, cell-based; details: HT-29, 48 h
A-375 [12] = test: Antiproliferative activity against human A-375 cells incubated for 48 hrs by MTT assay; assay type: functional, cell-based; details: A-375, 48 h
A549 [13] = test: Antiproliferative activity against human A549 cells incubated for 48 hrs by MTT assay; assay type: functional, cell-based; details: A549, 48 h
PC-3 = test: Antiproliferative activity against human PC-3 cells incubated for 48 hrs by MTT assay; assay type: functional, cell-based; details: PC-3, 48 h
K562 = test: Anticancer activity against human K562 cells; assay type: functional, cell-based
HCT-116 = test: Anticancer activity against human HCT-116 cells; assay type: functional, cell-based
A549 [14] = test: Anticancer activity against human A549 cells; assay type: functional, cell-based
MV4-11 = test: Anticancer activity against human MV4-11 cells; assay type: functional, cell-based
SK-MEL-2 [15] = test: Anticancer activity against human SK-MEL-2 cells; assay type: functional, cell-based
[16] = Antiproliferative activity against human WM1361 cells assessed as cell growth inhibition; assay type: functional, cell-based
A-375 [17] = test: Antiproliferative activity against human A-375 cells assessed as cell growth inhibition; assay type: functional, cell-based
COLO 205 [18] = test: Antiproliferative activity against human COLO 205 cells assessed as inhibition of cell growth incubated for 72 hrs by MTT assay; assay type: functional, cell-based; details: COLO 205, 72 h
[19] = target: T1, Serine/threonine-protein kinase B-raf; test: Inhibition of B-Raf V600E mutant (unknown origin) by ELISA based assay
Target sequence in this assay (P15056 2-766 V600E limits assumed): as above

[20] = target: T2, Serine/threonine-protein kinase B-raf; test: Inhibition of wild type B-Raf (unknown origin) by ELISA based assay
A-375 [21] = test: Antiproliferative activity against human A-375 cells assessed as inhibition of cell growth incubated for 72 hrs by MTT assay; assay type: functional, cell-based; details: A-375, 72 h
HT-29 [22] = test: Antiproliferative activity against human HT-29 cells assessed as inhibition of cell growth incubated for 72 hrs by MTT assay; assay type: functional, cell-based; details: HT-29, 72 h
[23] = Antiproliferative activity against human WM1361 cells incubated for 24 hrs by MTT assay; assay type: functional, cell-based; details: WM1361, 24 h
[24] = Inhibition of full length GST tagged mouse B-Raf V600E mutant preincubated for 1 hr and measured after 25 mins in presence of ATP
A-375 [25] = test: Antiproliferative activity against human A-375 cells incubated for 24 hrs by MTT assay; assay type: functional, cell-based; details: A-375, 24 h
[26] = target: Serine/threonine-protein kinase B-raf (Mus musculus, UniProt P28028); test: Inhibition of full length GST tagged mouse wild type B-Raf preincubated for 1 hr and measured after 25 mins in presence of ATP
Sequence of Serine/threonine-protein kinase B-raf (Mus musculus, UniProt P28028) (P28028 whole entry): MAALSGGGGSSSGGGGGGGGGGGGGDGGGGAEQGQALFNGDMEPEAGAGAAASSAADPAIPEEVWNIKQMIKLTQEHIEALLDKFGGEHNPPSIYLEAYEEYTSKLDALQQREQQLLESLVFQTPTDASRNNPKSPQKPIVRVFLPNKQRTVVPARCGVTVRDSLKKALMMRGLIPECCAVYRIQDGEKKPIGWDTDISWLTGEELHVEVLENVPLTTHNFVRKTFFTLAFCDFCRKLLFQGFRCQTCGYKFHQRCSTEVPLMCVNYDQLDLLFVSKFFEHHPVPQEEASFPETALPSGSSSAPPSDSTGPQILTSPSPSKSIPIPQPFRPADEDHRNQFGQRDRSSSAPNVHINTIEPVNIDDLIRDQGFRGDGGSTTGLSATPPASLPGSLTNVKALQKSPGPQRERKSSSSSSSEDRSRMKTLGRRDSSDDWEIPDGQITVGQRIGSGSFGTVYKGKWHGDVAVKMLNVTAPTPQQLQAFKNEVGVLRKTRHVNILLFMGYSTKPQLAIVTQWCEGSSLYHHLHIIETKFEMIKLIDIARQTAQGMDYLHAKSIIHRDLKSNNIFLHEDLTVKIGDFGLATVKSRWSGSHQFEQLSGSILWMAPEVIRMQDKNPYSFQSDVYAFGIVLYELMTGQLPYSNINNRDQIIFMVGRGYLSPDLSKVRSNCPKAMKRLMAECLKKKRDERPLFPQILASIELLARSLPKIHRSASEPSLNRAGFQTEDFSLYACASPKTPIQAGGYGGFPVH

[27] = target: T2, Serine/threonine-protein kinase B-raf; test: Inhibition of wild type B-Raf (unknown origin) incubated for 1 hr by ELISA based luminescence assay
[28] = target: T1, Serine/threonine-protein kinase B-raf; test: Inhibition of B-Raf V600E mutant (unknown origin) incubated for 1 hr by ELISA based luminescence assay
Target sequence in this assay (P15056 2-766 V600E limits assumed): as the sequence (P15056 2-766 V600E limits assumed) above

A549 [29] = test: Antiproliferative activity against human A549 cells assessed as cell growth inhibition; assay type: functional, cell-based

Compound: CNC(=O)c1cc(Cn2ccc3cc(NC(=O)Nc4ccc(Cl)c(C(F)(F)F)c4)ccc32)ccn1
IC50 (SW480): 13500 nM
IC50 [1]: 510 nM
IC50 (MDA-MB-453): 21900 nM
IC50 (HepG2 [2]): 6630 nM

Compound: COC(=O)c1ccccc1-c1ccc(/C=C/[N+](=O)[O-])o1
IC50 [3]: 1380 nM
IC50 [4]: 1960 nM

Compound: CCCCN1CCN(Oc2cc3nccc(Oc4ccc(NS(=O)(=O)c5cc(F)ccc5F)cc4F)c3cc2OC)CC1
IC50 [1]: 91 nM
IC50 [5]: 100 nM

Compound: Cc1ccc(C(=O)Nc2ccc(Cl)c(C(F)(F)F)c2)cc1NC(=O)C1(c2ccnc(NCCN3CCN(C)CC3)n2)CC1
IC50 (COLO 205 [6]): 1920 nM
IC50 (HepG2 [7]): 2460 nM
IC50 [1]: 12.6 nM
IC50 (SK-MEL-2 [8]): 580 nM
IC50 (A-375 [9]): 1070 nM
IC50 [5]: 19.7 nM

Compound: CC(C)(C)c1cc(NC(=O)Nc2ccc(Oc3ccnc4[nH]c(=O)cnc34)cc2F)n(-c2ccccc2)n1
IC50 (A-375 [10]): 12000 nM
IC50 [5]: 100 nM

IC50 (HT-29 [11]): 14700 nM
IC50 (A-375 [12]): 12200 nM
IC50 (A549 [13]): 12500 nM
IC50 (PC-3): 23400 nM
Compound: Cn1ncc2c(Oc3ccc(NC(=O)Nc4ccc(Cl)c(C(F)(F)F)c4)cc3)ncnc21

Compound: O=S(=O)(Nc1ccc(F)c(Nc2ccccc2-c2ncnc3[nH]cnc23)c1F)c1ccoc1
IC50 [1]: 2 nM
IC50 [5]: 2.2 nM

Compound: O=C(Nc1ccc(Oc2ccc(C(=O)c3ncc[nH]3)cc2)cc1)Nc1ccc(Cl)c(C(F)(F)F)c1
IC50 (K562): 9130 nM
IC50 (HCT-116): 10900 nM
IC50 (A549 [14]): 9110 nM
IC50 (MV4-11): 380 nM
IC50 (SK-MEL-2 [15]): 5400 nM
IC50 [1]: 86 nM
IC50 [5]: 134 nM

Compound: COc1ccc(-n2cc(NC(=O)c3cccc(NC(=O)Nc4ccc(Cl)c(C(F)(F)F)c4)c3)cn2)cc1
IC50 [16]: 7120 nM
IC50 (A-375 [17]): 390 nM
IC50 [1]: 35 nM
IC50 [5]: 220 nM

Compound: CCC[S+]([O-])Nc1ccc(F)c(Cc2c[nH]c3nc(N)n(C)c(=O)c23)c1F (stereo unspecified)
IC50 (COLO 205 [18]): 1640 nM
IC50 [19]: 50 nM
IC50 [20]: 440 nM
IC50 (A-375 [21]): 800 nM
IC50 (HT-29 [22]): 550 nM

Compound: Cc1ccc(-n2cc(NC(=O)c3c[nH]c4ccccc34)cn2)cc1
IC50 [23]: 10000 nM
IC50 [24]: 100 nM
IC50 (A-375 [25]): 930 nM
IC50 [26]: 920 nM

Compound: Cc1cnc2[nH]cc(C(=O)c3c(F)ccc(N[S+]([O-])C(C)C)c3F)c2c1 (stereo unspecified)
IC50 [27]: 200 nM
IC50 [28]: 54 nM

Compound: Cc1ccc(C2=NN=C(NC(=S)Nc3ccc(Cl)cc3)SC2)cc1
IC50 (A549 [29]): 320 nM
IC50 [1]: 180 nM
